Data: patent publication US5017723A, “Substituted ethylamines, their preparation process, their use as medicine and their synthesising agents” (Jouveinal S.A., priority 1990, dated 1991)
pIC50: −log10 of the molar value. Like-named read-outs stand apart in the source and are kept apart here.

Key:
opiated delta receptor = target: T1, opiated delta receptor (Cavia porcellus, UniProt A0A286XTF2); assay: Displacement of specific radioactive ligands, opiated delta receptor; assay type: binding, guinea pig; details: inhibition of 50% of radioligand bonds; read-out: CI50 affinity delta rec.
T1 construct: membranous receptors of a guinea pig; from tissue
T1 sequence (A0A286XTF2 1-366): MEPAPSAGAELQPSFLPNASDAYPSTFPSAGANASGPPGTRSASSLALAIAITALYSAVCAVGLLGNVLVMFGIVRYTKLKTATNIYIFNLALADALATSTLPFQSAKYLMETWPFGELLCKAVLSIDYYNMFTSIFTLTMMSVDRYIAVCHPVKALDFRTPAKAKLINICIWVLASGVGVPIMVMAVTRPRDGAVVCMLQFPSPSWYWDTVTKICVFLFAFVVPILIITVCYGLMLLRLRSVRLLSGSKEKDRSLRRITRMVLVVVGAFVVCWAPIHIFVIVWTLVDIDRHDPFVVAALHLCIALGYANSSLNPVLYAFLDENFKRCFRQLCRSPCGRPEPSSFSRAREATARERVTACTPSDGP
Procedure: (§1) The analysis is carried out in accordance with the technique described by F. Roman et al. in J. Pharm. Pharmcol. 1987, 39, p. 404-407 which consists of analysing the displacement of specific radioactive ligands of the opiated mu, delta and kappa sub receptors by the action of the test products on the membranous receptors of a guinea pig.

bladder of the rat = assay: Transvesical cystomanometry on wide awake rat (urological activity); assay type: in vivo, female rat; details: for activity on the urinary tract compared to the reference compounds (in words): compared to Dicyclomine and Baclofen; for change in vivo at 1 mg/kg / change in vivo at 5 mg/kg: Rattus norvegicus, iv; for change in vivo at 1 mg/kg: 1,0 mg/kg i.v.; for change in vivo at 5 mg/kg: 5,0 mg/kg i.v.
Procedure: Studies by a similar method of operation, the compounds of the invention (I.A) which show a mu and kappa affinity also have an activity on certain functional parameters of the bladder of the rat which justifies their interest in the treatment of dysfunctions in the urinary tract.
The study carried out consists of transvesical cystomanometry on a wide awake rat. The following was measured during the storage and emission phases of urine under continuous intervesical perfusion of sterile physiological serum:
the "threshold pressure", which is the intervesical pressure immediately preceding the contraction phase of the detrusor
the volume of each urinary emission.
The technique used in the female rat consisted of preparing the animals 48 hours before the actual experiment by effecting the implantation of two catheters in the apex of the bladder and one catheter in the left-hand jugular vein under anaesthetic, with the external end of these catheters being protected and held by a sticking plaster corset.
The animals were placed in suitable cages at the time of the test, which were equipped so as to collect and measure the urine. For each animal one vesical catheter was connected to a pressure sensor, the other to a perfusor which supplied 0.2 ml/min. of sterile physiological serum continuously.
The intravesical pressure was measured continuously during the perfusion and it was possible to observe:
a filling phase of the bladder during which the pressure increased progressively,
a sudden rising phase of this pressure during the contraction of the detrusor: the "threshold" pressure which is the pressure observed just before the pressure of the contraction phase. This threshold pressure was raised in the same way as the urinary volume at each urination.
The study consisted of observing the changes in these parameters by the action of the products (IA) which were administered in solution by intravenous route by means of the catheter placed in the left jugular vein.
Dicyclomine and Baclofen which have been considered for the treatment of hyperactive bladders (Drugs of Today, Vol. 24, no. 5, 1988, p. 337-348) were also used in this test in the form of comparison products.

[1] = test system: convulsion induced by picrotoxine in mice; assay: Protection against picrotoxine-induced convulsion (suppression of the tonic extension phase); assay type: in vivo, male Swiss mice; details: for responders at 50 mg/kg / responders at 100 mg/kg / ED50: Mus musculus; for responders at 50 mg/kg: 0.5 h, read-out: i.p.: % prot. (percentage of protected animals), 50 mg/kg i.p., picrotoxine 24 mg/kg i.p. 30 min later; for responders at 100 mg/kg: 1 h, read-out: p.o.: % prot. (percentage of protected animals), 100 mg/kg p.o., picrotoxine 24 mg/kg i.p. 60 min later
Description: The psychotropic properties of the compounds have been determined by the protection of the induced convulsion by picrotoxine for mice, which is achieved by the method derived from that of Krall et al., "Epilepsia", 1978, 19, p. 409-428.
The administration of picrotoxine caused a convulsive crisis in the animal characterised by a myoclonic extension syndrome followed by the extension of the limbs causing the animal to die. Certain substances, particularly those active on the complex GABA/benzodiazepines/Cl-ionophore makes it possible to protect the animals from this convulsive crisis.
In practice the study is carried out on batches of 10 male "Swiss" mice weighing approximately 20 g, which are administered with the product to be studied in aqueous solution either by intraperitoneal route (i.p.) at the rate of 50 mg/kg and in a volume of 0.2 ml of solution per animal, or by oral route (p.o) in a volume of 2.0 ml of solution per animal.
An injection of a solution of picrotoxine at the rate of 24 mg/kg in a volume of 0.2 ml per animal is then administered by interperitoneal route, either 30 minutes after administering the product by interperitoneal route or 60 minutes after administering the product by oral route. The dose of the product injected causing a clonic crisis, which results in untreated animals dying. The suppression of the extension tonic phase in the animals treated under the conditions of the test is observed. The results are expressed:
either in percentages of protected animals of this phase to the reaction of 50 mg/kg of the compound of the study administered by i.p. route or 100 mg/kg by p.o route,
or in DE50 for each of these routes, which is the efficient dosage of the test compound expressed in mg/kg protecting 50% of the animals of this extension phase. The significant value of the results being generally indicated in the following manner:
* Significant result at p<0.05
** Significant result at p<0.01
*** Significant highly significant at p<0.001.

opiated kappa receptor = target: T2, opiated kappa receptor (Cavia porcellus, UniProt P41144); assay: Displacement of specific radioactive ligands, opiated kappa receptor; assay type: binding, guinea pig; details: inhibition of 50% of radioligand bonds; read-out: CI50 affinity kappa rec.
T2 construct: membranous receptors of a guinea pig; from tissue
T2 sequence (P41144 whole entry): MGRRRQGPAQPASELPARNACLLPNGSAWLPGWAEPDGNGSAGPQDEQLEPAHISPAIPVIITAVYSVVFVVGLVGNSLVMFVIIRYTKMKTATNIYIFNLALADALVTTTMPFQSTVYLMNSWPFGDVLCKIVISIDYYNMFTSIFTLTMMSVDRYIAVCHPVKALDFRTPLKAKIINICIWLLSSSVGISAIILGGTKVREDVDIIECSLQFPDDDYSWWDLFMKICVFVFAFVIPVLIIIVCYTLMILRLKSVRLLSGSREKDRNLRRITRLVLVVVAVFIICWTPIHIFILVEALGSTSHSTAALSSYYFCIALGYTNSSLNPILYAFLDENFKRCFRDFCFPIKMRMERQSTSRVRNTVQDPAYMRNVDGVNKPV
Procedure: as §1

opiated mu receptor [2] = target: opiated mu receptor (Cavia porcellus, UniProt A0ACM8Q262); assay type: binding, guinea pig
Sequence of opiated mu receptor (Cavia porcellus, UniProt A0ACM8Q262) (A0ACM8Q262 1-400): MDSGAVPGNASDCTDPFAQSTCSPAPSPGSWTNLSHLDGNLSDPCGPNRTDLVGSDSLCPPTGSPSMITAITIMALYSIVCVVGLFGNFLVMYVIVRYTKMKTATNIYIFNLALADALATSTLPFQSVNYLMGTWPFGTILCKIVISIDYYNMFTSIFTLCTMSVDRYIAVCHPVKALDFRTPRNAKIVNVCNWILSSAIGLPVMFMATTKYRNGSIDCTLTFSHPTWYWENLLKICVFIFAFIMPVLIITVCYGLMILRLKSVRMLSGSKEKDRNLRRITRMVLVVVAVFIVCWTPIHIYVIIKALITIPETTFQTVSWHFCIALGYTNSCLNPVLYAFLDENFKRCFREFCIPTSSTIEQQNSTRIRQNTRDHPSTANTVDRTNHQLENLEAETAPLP
Procedure: as §1

opiated mu receptor [3] = assay type: binding, guinea pig; details: opiated receptors, compared with morphine
Procedure: as §1

[4] = ip, * p<0.05, ** p<0.01, *** p<0.001
[5] = po, * p<0.05, ** p<0.01, *** p<0.001
[6] = inhibition of 50% of radioligand bonds; read-out: CI50 affinity mu rec.
[7] = read-out: % variation pressure threshold

Row | Compound | pIC50 (opiated delta receptor) | activity on the urinary tract compared to the reference compounds (in words) (bladder of the rat) | responders at 50 mg/kg [1, 4] | responders at 100 mg/kg [1, 5] | pIC50 (opiated kappa receptor) | pIC50 (opiated mu receptor [2]; [6]) | change in vivo at 5 mg/kg (bladder of the rat; [7]) | change in vivo at 5 mg/kg (bladder of the rat; read-out: % variation volume) | also measured
1 | CCC(CC=Cc1ccccc1)(c1ccc(Cl)cc1)N(C)C (centres unmarked) [Example 31, a-cinnamyl-N,N-dimethyl-a-ethyl-p.chlorobenzylamine] | 5.87 | important activity | 100% | 50% | 6.68 | 7.10 |  |  | 
2 | CCC(CC=Cc1ccc(Cl)c(Cl)c1)(c1ccc(OC)cc1)N(C)C (centres unmarked) [Example 46, a-(3',4'-dichloro)cinnamyl-N,N-dimethyl-a-ethyl-p.metoxybenzylamine] | 6.59 | important activity |  |  | 6.63 | 7.92 |  |  | change in vivo at 1 mg/kg (bladder of the rat; [7]): 111%; change in vivo at 1 mg/kg (bladder of the rat; read-out: % variation volume): 44%; ED50 ([1]; ip, read-out: i.p.: DE50): 29.8 mg/kg; ED50 ([1]; po, read-out: p.o.: DE50): 35.4 mg/kg; affinity with the receptors compared with morphine (in words) (opiated mu receptor [3]): same order of intensity as the reference products
3 | CNC(CC=Cc1ccc(Cl)c(Cl)c1)(c1ccccc1)C(C)C (centres unmarked) [Example 23, a-(3',4'-dichloro)cinnamyl-a-isopropyl-N-methyl-benzylamine] | 5.86 |  | 60% | 100% | 6.47 | 7.10 | 196% | 35% | 
4 | CCC(CC=Cc1ccccc1)(c1ccc(OC)cc1)N(C)C (centres unmarked) [Example 35, a-cinnamyl-N,N-dimethyl-a-ethyl-p.methoxybenzylamine] | 5.89 | important activity | 90% |  | 6.54 | 7.22 |  |  | change in vivo at 1 mg/kg (bladder of the rat; [7]): 200%; change in vivo at 1 mg/kg (bladder of the rat; read-out: % variation volume): 39%; ED50 ([1]; po, read-out: p.o.: DE50): 40.3 mg/kg
5 | CCC(CC=Cc1ccc(Cl)c(Cl)c1)(c1ccc(Cl)cc1)N(C)C (centres unmarked) [Example 43, a-(3',4' dichloro) cinnamyl-N,N-dimethyl-a-ethyl-p.chlorobenzylamine] | 6.36 | important activity |  |  | 6.71 | 7.80 |  |  | change in vivo at 1 mg/kg (bladder of the rat; [7]): 109%; change in vivo at 1 mg/kg (bladder of the rat; read-out: % variation volume): 91%; affinity with the receptors compared with morphine (in words) (opiated mu receptor [3]): same order of intensity as the reference products
6 | CCC(CC=Cc1ccccc1)(c1ccc(Cl)cc1)N(C)C (single isomer, unassigned; (+)) [Example 52, (+) a-cinnamyl-N,N-dimethyl-a-ethyl-p.chlorobenzylamine] |  | important activity | 70% | 90% | 7.00 | 8.15 |  |  | 
7 | CCC(CC=Cc1ccc(Cl)c(Cl)c1)(c1ccccc1)N(C)C (centres unmarked) [Example 36, a-(3',4'-dichloro)cinnamyl-N,N-dimethyl-a-ethyl-benzylamine] | 6.17 | important activity |  | 100% | 6.66 | 7.05 |  |  | change in vivo at 1 mg/kg (bladder of the rat; [7]): 125%; change in vivo at 1 mg/kg (bladder of the rat; read-out: % variation volume): 36%
8 | CCC(N)(CC=Cc1ccccc1)c1ccc(Cl)cc1 (single isomer, unassigned; (-)) [Example 17B, (-)a-cinnamyl-a-ethyl-p.chlorobenzylamine] |  |  |  |  |  | 7.94 |  |  | i.p.: % prot. (percentage of protected animals) ([1]; 50 mg/kg i.p., picrotoxine 24 mg/kg i.p. 30 min later, * p<0.05, ** p<0.01, *** p<0.001): 80%; p.o.: % prot. (percentage of protected animals) ([1]; 100 mg/kg p.o., picrotoxine 24 mg/kg i.p. 60 min later, * p<0.05, ** p<0.01, *** p<0.001): 50%
9 | CCC(CC=Cc1ccc(Cl)c(Cl)c1)(NC)c1ccc(Cl)cc1 (centres unmarked) [Example 26, a-(3' ,4'-dichloro)cinnamyl-a-ethyl-N-methyl-p.chlorobenzylamine] | 5.97 |  |  |  | 6.34 | 7.55 | 229% | 93% | 
10 | CCC(CC=Cc1ccc(Cl)c(Cl)c1)(NC)c1ccc(OC)cc1 (centres unmarked) [Example 25, a-(3',4'-dichloro)cinnamyl-a-ethyl-N-methyl-p.methoxybenzylamine] | 5.80 |  |  | 50% | 6.06 | 7.25 | 85% | 67% | 
11 | CCC(CC=Cc1ccccc1)(c1ccc(C)cc1)N(C)C (centres unmarked) [Example 33] | 5.91 | important activity |  |  | 6.92 |  |  |  | pIC50 (opiated mu receptor [2]; read-out: CI50 affinity mu rec.; inhibition of 50% of radioligand bonds): 7.30
12 | CCC(CC=Cc1ccc(Cl)c(Cl)c1)(c1ccc(C)cc1)N(C)C (centres unmarked) [Example 44, a-(3',4'-dichloro) cinnamyl-N,N-dimethyl-a-ethyl-p.methylbenzylamine] | 6.65 | important activity |  |  | 6.96 | 8.40 |  |  | ED50 ([1]; ip, read-out: i.p.: DE50): 21.4 mg/kg; ED50 ([1]; po, read-out: p.o.: DE50): 23.9 mg/kg; affinity with the receptors compared with morphine (in words) (opiated mu receptor [3]): same order of intensity as the reference products
13 | CCC(CC=Cc1cc(OC)c(OC)c(OC)c1)(c1ccccc1)N(C)C (centres unmarked) [Example 37] | 6.82 |  |  |  | 6.64 | 7.00 | 188% | 53% | 
14 | CCC(CC=Cc1ccc(Cl)c(Cl)c1)(NC)c1ccc(C)cc1 (centres unmarked) [Example 24, a-(3',4'-dichloro)cinnamyl-a-ethyl-N-methyl-p.methylbenzylamin] | 5.85 |  |  |  | 6.39 | 7.68 |  |  | p.o.: DE50 ([1]; p.o. route, value printed with a % sign): 73,5%
15 | CCC(CC=Cc1ccccc1)(NC)c1ccc(Cl)cc1 (centres unmarked) [Example 19, a-cinnamyl-a-ethyl-N-methyl-p.chlorobenzylamine] | 5.46 |  | 70% |  | 6.58 | 6.70 | 354% | 54% | 
